Experimental data: article PMC12410356 (International Journal for Parasitology: Drugs and Drug …, 2025)

Tested on: E. multilocularis metacestode vesicles
Assay: Phosphoglucose isomerase (PGI) release assay (damage-marker release) on metacestode vesicles
Format: cell-based, Echinococcus multilocularis
Conditions: overview screen, 10 μM, singlets, 5 days, relative to 0.1 % Triton X-100, DMSO subtracted
Method: In order to quantify the drug-induced damage on whole metacestode vesicles, phosphoglucose isomerase (PGI) assay was performed as described previously ([Stadelmann et al., 2010]) with few adaptations published recently ([Kaethner et al., 2023]). In short, 8 to 12 weeks-old metacestode vesicles were purified using 2 % sucrose with subsequent washes in PBS. Metacestode vesicles were diluted in two volumes of DMEM without phenol red containing penicillin (100 U/mL) and streptomycin (100 μg/mL). […] 0.1 % DMSO was used as a negative solvent control and 0.1 % Triton X-100 was used as a positive total damage control. Metacestode vesicles were incubated under a humid, 5 % CO2 atmosphere at 37 °C. After five and twelve days, supernatant was taken and pictures were made using a Nikon SMZ18 stereo microscope (Nikon, Basel, Switzerland) at 7.5 × magnification. PGI activity in the supernatants was measured on a HIDEX Sense microplate reader (Hidex, Turku, Finland). The corresponding values of the DMSO controls were subtracted from the values of the compounds and then PGI activity was calculated relative to 0.1 % Triton X-100. […] IC50 values were calculated applying the 3 parameter Weibull type 1 in R for each of the three independent experiments ([Ritler et al., 2020]).

In order of falling “PGI d5 (relative PGI release)” value:
1. O=c1cc(NCCCN[C@@H]2CCOc3c(Br)cc(Br)cc32)[nH]c2ccsc12 [MMV1578884]  13.7393%
2. Nc1c(C(=O)NCc2ccco2)c2nc3ccccc3nc2n1CCN1CCCCC1 [MMV099714]  2.984%
3. COC(=O)Nc1nc2cc(Sc3ccccc3)ccc2[nH]1 [MMV003143]  2.636%
4. C[C@H](c1cccc2ccccc12)N(C)Cc1ccccc1 [MMV1782221]  2%
5. CCc1cc(CCC(=O)Nc2ccccc2O)c(=O)[nH]c1C [MMV1782106]  1.217%
6. O=C(O)C[C@H]1CC[C@H](c2ccc(-c3ccc(Nc4ccc(C(F)(F)F)nc4)cn3)cc2)CC1 [MMV1580498]  0.9992%
7. OCCC#Cc1nc(-c2ccc(F)cc2)c(-c2ccncc2)n1CCCc1ccccc1 [MMV1580797]  0.809%
8. O=C(NCc1ccc(F)cc1)c1c(O)c2ncccc2[nH]c1=O [MMV1782097]  0.7945%
9. O=c1[nH]c(=O)n(Cc2cccc(Oc3ccccc3)c2)cc1Nc1ccccc1 [MMV1782107]  0.6712%
10. COc1ccc(NC(=O)CC2Sc3ncnn3C2=O)cc1 (stereo not drawn) [MMV1483032]  0.1451%
11. CCOc1ccc(/C=N/NC(=O)C2CC2c2ccc(C(C)(C)C)cc2)cc1OCC (stereo not drawn) [MMV1634398]  0.06885%
12. COc1cc(NS(=O)(=O)c2ccc(C)cc2)c2ncccc2c1 [MMV098836]  -0.2103%
13. CS(=O)(=O)c1ccc(Oc2ccc(Cl)cc2)cc1 [MMV1634404]  -0.3308%
14. O=C1[C@H](CC[C@H](O)c2ccc(F)cc2)[C@@H](c2ccc(O)cc2)N1c1ccc(F)cc1 [MMV1581377]  -0.5323%
15. CC(C)(C)c1ccc(Oc2ccc(N)cc2)cc1 [MMV1174026]  -0.5482%
16. Cl.N=C(N)c1ccc(COc2ccc(Cl)cc2)cc1 [MMV1579844]  -0.5727%
17. CC(C)C(=O)N[C@H]1[C@H]([C@H](O)[C@H](O)CO)OC(C(=O)O)=C[C@@H]1N=[N+]=[N-] [MMV1782111]  -0.6196%
18. Cc1c[nH]c(=O)nc1NCc1ccccc1 [MMV1582489]  -0.6323%
19. CNCC(=O)OCc1cccnc1N(C)C(=O)OC(C)[n+]1cnn(C[C@](O)(c2cc(F)ccc2F)[C@@H](C)c2nc(-c3ccc(C#N)cc3)cs2)c1 (stereo partly drawn) [MMV1634494]  -2.972%

Same assay, conditions: overview screen, 10 μM, singlets, 12 days, relative to 0.1 % Triton X-100, DMSO subtracted

In order of rising “PGI d12 (relative PGI release)” value:
1. CNCC(=O)OCc1cccnc1N(C)C(=O)OC(C)[n+]1cnn(C[C@](O)(c2cc(F)ccc2F)[C@@H](C)c2nc(-c3ccc(C#N)cc3)cs2)c1 (stereo partly drawn) [MMV1634494]  -24.8266%
2. C[C@H](c1cccc2ccccc12)N(C)Cc1ccccc1 [MMV1782221]  -21.1471%
3. O=c1[nH]c(=O)n(Cc2cccc(Oc3ccccc3)c2)cc1Nc1ccccc1 [MMV1782107]  -19.0475%
4. CS(=O)(=O)c1ccc(Oc2ccc(Cl)cc2)cc1 [MMV1634404]  -18.6197%
5. CCc1cc(CCC(=O)Nc2ccccc2O)c(=O)[nH]c1C [MMV1782106]  -17.9747%
6. OCCC#Cc1nc(-c2ccc(F)cc2)c(-c2ccncc2)n1CCCc1ccccc1 [MMV1580797]  -17.1938%
7. COc1ccc(NC(=O)CC2Sc3ncnn3C2=O)cc1 (stereo not drawn) [MMV1483032]  -11.504%
8. Cc1c[nH]c(=O)nc1NCc1ccccc1 [MMV1582489]  -1.8719%
9. O=C(NCc1ccc(F)cc1)c1c(O)c2ncccc2[nH]c1=O [MMV1782097]  -0.6563%
10. CC(C)C(=O)N[C@H]1[C@H]([C@H](O)[C@H](O)CO)OC(C(=O)O)=C[C@@H]1N=[N+]=[N-] [MMV1782111]  0.1424%
11. CCOc1ccc(/C=N/NC(=O)C2CC2c2ccc(C(C)(C)C)cc2)cc1OCC (stereo not drawn) [MMV1634398]  0.3627%
12. O=C(O)C[C@H]1CC[C@H](c2ccc(-c3ccc(Nc4ccc(C(F)(F)F)nc4)cn3)cc2)CC1 [MMV1580498]  1.035%
13. COc1cc(NS(=O)(=O)c2ccc(C)cc2)c2ncccc2c1 [MMV098836]  2.3899%
14. COC(=O)Nc1nc2cc(Sc3ccccc3)ccc2[nH]1 [MMV003143]  9.38%
15. Cl.N=C(N)c1ccc(COc2ccc(Cl)cc2)cc1 [MMV1579844]  10.4621%
16. CC(C)(C)c1ccc(Oc2ccc(N)cc2)cc1 [MMV1174026]  16.4911%
17. O=C1[C@H](CC[C@H](O)c2ccc(F)cc2)[C@@H](c2ccc(O)cc2)N1c1ccc(F)cc1 [MMV1581377]  22.6699%
18. Nc1c(C(=O)NCc2ccco2)c2nc3ccccc3nc2n1CCN1CCCCC1 [MMV099714]  44.8288%
19. O=c1cc(NCCCN[C@@H]2CCOc3c(Br)cc(Br)cc32)[nH]c2ccsc12 [MMV1578884]  54.0946%

Tested on: E. multilocularis metacestode vesicles
Assay: Metacestode vesicle viability assay (ATP, CellTiter-Glo)
Format: cell-based, Echinococcus multilocularis
Conditions: overview screen, 10 μM, singlets, 12 days, relative to DMSO control
Method: Viability was assessed after 12 days using the same metacestode vesicles as for the PGI release assay. Triton X-100 was added to each well to a final concentration of 0.1 %. Subsequently the metacestode vesicles were broken mechanically and 50 μL of the supernatant was mixed with 50 μL of CellTiter-Glo® buffer (Promega, Dübendorf, Switzerland). Measurements were performed on a HIDEX Sense microplate reader.

In order of rising “Viability d12 (relative viability)” value:
1. Cl.N=C(N)c1ccc(COc2ccc(Cl)cc2)cc1 [MMV1579844]  5.845%
2. COC(=O)Nc1nc2cc(Sc3ccccc3)ccc2[nH]1 [MMV003143]  13.6935%
3. CNCC(=O)OCc1cccnc1N(C)C(=O)OC(C)[n+]1cnn(C[C@](O)(c2cc(F)ccc2F)[C@@H](C)c2nc(-c3ccc(C#N)cc3)cs2)c1 (stereo partly drawn) [MMV1634494]  42.7505%
4. C[C@H](c1cccc2ccccc12)N(C)Cc1ccccc1 [MMV1782221]  45.2554%
5. O=c1cc(NCCCN[C@@H]2CCOc3c(Br)cc(Br)cc32)[nH]c2ccsc12 [MMV1578884]  55.812%
6. CS(=O)(=O)c1ccc(Oc2ccc(Cl)cc2)cc1 [MMV1634404]  57.7676%
7. Nc1c(C(=O)NCc2ccco2)c2nc3ccccc3nc2n1CCN1CCCCC1 [MMV099714]  63.8129%
8. COc1ccc(NC(=O)CC2Sc3ncnn3C2=O)cc1 (stereo not drawn) [MMV1483032]  68.4676%
9. COc1cc(NS(=O)(=O)c2ccc(C)cc2)c2ncccc2c1 [MMV098836]  72.5053%
10. O=C1[C@H](CC[C@H](O)c2ccc(F)cc2)[C@@H](c2ccc(O)cc2)N1c1ccc(F)cc1 [MMV1581377]  84.8656%
11. CC(C)C(=O)N[C@H]1[C@H]([C@H](O)[C@H](O)CO)OC(C(=O)O)=C[C@@H]1N=[N+]=[N-] [MMV1782111]  85.5263%
12. O=C(O)C[C@H]1CC[C@H](c2ccc(-c3ccc(Nc4ccc(C(F)(F)F)nc4)cn3)cc2)CC1 [MMV1580498]  139.746%
13. Cc1c[nH]c(=O)nc1NCc1ccccc1 [MMV1582489]  140.789%
14. O=C(NCc1ccc(F)cc1)c1c(O)c2ncccc2[nH]c1=O [MMV1782097]  171.617%
15. O=c1[nH]c(=O)n(Cc2cccc(Oc3ccccc3)c2)cc1Nc1ccccc1 [MMV1782107]  211.334%
16. OCCC#Cc1nc(-c2ccc(F)cc2)c(-c2ccncc2)n1CCCc1ccccc1 [MMV1580797]  270.956%
17. CC(C)(C)c1ccc(Oc2ccc(N)cc2)cc1 [MMV1174026]  305.195%
18. CCOc1ccc(/C=N/NC(=O)C2CC2c2ccc(C(C)(C)C)cc2)cc1OCC (stereo not drawn) [MMV1634398]  324.092%
19. CCc1cc(CCC(=O)Nc2ccccc2O)c(=O)[nH]c1C [MMV1782106]  488.194%
